According to the CheMixHub viscosity set:

Assay: xn = mol fraction of the nth substance listed

CC1CCC(C)O1 (centres undefined) + ClC1CCCCC1
viscosity [mPa·s], 101.3 kPa
Conditions	x1 = 0.0973	x1 = 0.2014	x1 = 0.3026	x1 = 0.3986	x1 = 0.4986	x1 = 0.6031	x1 = 0.7002	x1 = 0.7977	x1 = 0.8986
298.15 K	1.36	1.179	1.033	0.9191	0.818	0.7279	0.6563	0.5937	0.5366
313.15 K	1.073	0.9412	0.8337	0.7486	0.6724	0.6054	0.551	0.499	0.452

Cc1ccccc1O + Oc1ccccc1
298.15 K, 101 kPa
Conditions	viscosity [mPa·s]
x2 = 0.1343	7.835
x2 = 0.1973	7.93
x2 = 0.3	8.099
x2 = 0.3881	8.235
x2 = 0.491	8.404
x2 = 0.6283	8.565
x2 = 0.6927	8.645
x2 = 0.7579	8.731
x2 = 0.8003	8.757
x2 = 0.873	8.825
x2 = 0.901	8.851

O=C(O)CO + O=C(O)[C@@H]1CCCN1
323 K, 100 kPa
Conditions	viscosity [mPa·s]
x2 = 0.25	480
x2 = 0.338	1340
x2 = 0.504	8080

C1CNCCN1.C1CNCCN1.C1CNCCN1.O=C(O)CC(O)(CC(=O)O)C(=O)O.O=C(O)CC(O)(CC(=O)O)C(=O)O + O
viscosity [mPa·s], 101.3 kPa
Conditions	293.15 K	303.15 K	313.15 K
x1 = 0.000319	1.035	0.826	0.679
x1 = 0.000781	1.073	0.857	0.708
x1 = 0.000911	1.086	0.865	0.716
x1 = 0.00105	1.101	0.877	0.725
x1 = 0.00119	1.115	0.888	0.733
x1 = 0.00134	1.132	0.901	0.743
x1 = 0.00149	1.148	0.914	0.753
x1 = 0.00166	1.166	0.928	0.763
x1 = 0.00179	1.179	0.939	0.771
x1 = 0.001875	1.188	0.945	0.775
x1 = 0.002838	1.303	1.034	0.834

CCCCCC + CCCCCCCCCC
298.15 K, 101.33 kPa
Conditions	viscosity [mPa·s]
x1 = 0.1074	0.7809
x1 = 0.2074	0.7182
x1 = 0.3029	0.6515
x1 = 0.4046	0.5846
x1 = 0.5041	0.5315
x1 = 0.6061	0.4805
x1 = 0.7053	0.4337
x1 = 0.8034	0.3791
x1 = 0.9036	0.3365
